Reference: US5624923A, “Tricyclic diazepine vasopressin antagonists and oxytocin antagonists” (priority 1995, dated 1997)

Columns and labels:
Rat Hepatic V1 Receptors = biological target: T1, Rat Hepatic V1 Receptors (Rattus norvegicus, UniProt P30560); assay: Binding Assay to Rat Hepatic V1 Receptors; settings: for IC50: rat liver membranes, read-out: V1 IC50
T1 construct: Rat liver plasma membranes expressing the vasopressin V1 receptor subtypes; from tissue; host or cells: rat liver plasma membranes
Method: Binding Assay to Rat Hepatic V1 Receptors
Rat liver plasma membranes expressing the vasopressin V1 receptor subtypes are isolated by sucrose density gradient according to the method described by Lesko et al., (1973). These membranes are quickly suspended in 50.0 mM Tris.HCl buffer, pH 7.4, containing 0.2% bovine serum albumin (BSA) and 0.1 mM phenylmethylsulfonylfluoride (PMSF) and kept frozen at -70° C. until used in subsequent binding experiments. For binding experiments, the following is added to the wells of a ninety-six well format microtiter plate: 100 μl of 100.0 mM Tris.HCl buffer containing 10.0 mM MgCl2, 0.2% heat inactivated BSA and a mixture of protease inhibitors: leupeptin, 1.0 mg %; aprotinin, 1.0 mg %; 1,10-phenanthroiine,2.0 mg %; trypsin inhibitor, 10.0 mg % and 0.1 mM PMSF, 20.0 μl of [phenylalanyl-3,4,5, -^3 H] vasopressin (S.A. 45.1 Ci/mmole) at 0.8 nM, and the reaction initiated by the addition of 80 μl of tissue membranes containing 20 μg of tissue protein. The plates are kept undisturbed on the bench top at room temperature for 120 min. to reach equilibrium. Non-specific samples are assayed in the presence of 0.1 μM of the unlabeled antagonist phenylalanylvasopressin, added in 20.0 μl volume.
(§1) For test compounds, these are solubilized in 50% dimethylsulfoxide (DMSO) and added in 20.0 μl volume to a final incubation volume of 200 μl . Upon completion of binding, the content of each well is filtered off, using a Brandel® cell Harvester (Gaithersburg, Md.). The radioactivity trapped on the filter disk by the ligand-receptor complex is assessed by liquid scintillation counting in a Packard LS Counter, with an efficiency of 65% for tritium. The data are analyzed for IC50 values by the LUNDON-2 program for competition (LUNDON SOFTWARE, Ohio).

Vasopressin V1 = Vasopressin V1 Antagonist Activity in Conscious Rats (vasopressin vasopressor response); type: in vivo, rat; set-up: Average Change: unit not given here; settings: SHR
In short: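 Conscious rats are restrained supine, and under local 2% procaine a PE 10/20 cannula is passed through the ventral caudal tail artery into the lower abdominal aorta. The caudal vein is cannulated for intravenous dosing. Blood pressure is recorded with a Statham P23Db transducer, and vasopressin injections are repeated after compound dosing. Percent antagonism is calculated against the pre-drug vasopressor response taken as 100%.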

[1] = biological target: T2, Rat Kidney Medullary V2 Receptors (Rattus norvegicus, UniProt Q00788); assay: Binding Assay to Rat Kidney Medullary V2 Receptors; settings: for IC50: rat kidney medulla membranes, read-out: V2 IC50
T2 construct: Medullary tissues from rat kidneys are dissected out; from tissue; host or cells: rat kidney medulla membranes
Method: Binding Assay to Rat Kidney Medullary V2 Receptors
Medullary tissues from rat kidneys are dissected out, cut into small pieces and soaked in a […] sodium chloride solution containing 1.0 mM EDTA with many changes of the liquid phase, until the solution is clear of blood. The tissue is homogenized in a 0.25M sucrose solution containing 1.0 mM EDTA and 0.1 mM PMSF using a Potter-Elvehjem homogenizer with a teflon pestle. The homogenate is filtered through several layers (4 layers) of cheese cloth. The filtrate is rehomogenized using a dounce homogenizer, with a tight fitting pestle. The final homogenate is centrifuged at 1500× g for 15 min. The nuclear pellet is discarded and the supernatant fluid recentrifuged at 40,000× g for 30 min. The resulting pellet formed contains a dark inner part with the exterior., slightly pink. The pink outer part is suspended in a small amount of 50.0 mM Tris. HCl buffer, pH 7.4. The protein content is determined by the Lowry's method (Lowry et al., J. Biol. Chem., 1953). The membrane suspension is stored at -70° C. in 50.0 mM Tris HCl, containing 0.2% inactivated BSA and 0.1 mM PMSF in aliquots of 1.0 ml containing 10.0 mg protein per ml of suspension until use in subsequent binding experiments.
as §1, with “The plates are left undisturbed on the bench top for 120 min to reach equilibrium. Non-specific binding is assessed in the presence of 1.0 μM of unlabeled ligand, added in 20 μl volume. For” for “For”, “μl.” for “μl .”

[2] = 10 mg/kg i.v., VAS 0.01 i.u./kg, 30 min
[3] = 10 mg/kg i.v., VAS 0.01 i.u./kg, 60 min
[4] = 10 mg/kg i.v., VAS 0.01 i.u./kg, 90 min
[5] = 10 mg/kg i.v., VAS 0.01 i.u./kg, 120 min
[6] = 10 mg/kg i.v., VAS 0.01 i.u./kg, 180 min
[7] = 10 mg/kg i.v., VAS 0.01 i.u./kg, 240 min
[8] = 10 mg/kg i.v., VAS 0.01 i.u./kg, 300 min
[9] = 10 mg/kg i.v., VAS 0.02 i.u./kg, 30 min
[10] = 10 mg/kg i.v., VAS 0.02 i.u./kg, 60 min
[11] = 10 mg/kg i.v., VAS 0.02 i.u./kg, 90 min
[12] = 10 mg/kg i.v., VAS 0.02 i.u./kg, 120 min
[13] = 10 mg/kg i.v., VAS 0.02 i.u./kg, 180 min
[14] = 10 mg/kg i.v., VAS 0.02 i.u./kg, 240 min
[15] = 10 mg/kg i.v., VAS 0.02 i.u./kg, 300 min
[16] = 20 mg/kg i.v., VAS 0.01 i.u./kg, 60 min
[17] = 20 mg/kg i.v., VAS 0.01 i.u./kg, 90 min
[18] = 20 mg/kg i.v., VAS 0.01 i.u./kg, 120 min
[19] = 20 mg/kg i.v., VAS 0.01 i.u./kg, 180 min
[20] = 20 mg/kg i.v., VAS 0.01 i.u./kg, 240 min
[21] = 20 mg/kg i.v., VAS 0.01 i.u./kg, 300 min
[22] = 20 mg/kg i.v., VAS 0.02 i.u./kg, 60 min
[23] = 20 mg/kg i.v., VAS 0.02 i.u./kg, 90 min
[24] = 20 mg/kg i.v., VAS 0.02 i.u./kg, 120 min
[25] = 20 mg/kg i.v., VAS 0.02 i.u./kg, 180 min
[26] = 20 mg/kg i.v., VAS 0.02 i.u./kg, 240 min
[27] = 20 mg/kg i.v., VAS 0.02 i.u./kg, 300 min

T1 sequence (P30560 whole entry): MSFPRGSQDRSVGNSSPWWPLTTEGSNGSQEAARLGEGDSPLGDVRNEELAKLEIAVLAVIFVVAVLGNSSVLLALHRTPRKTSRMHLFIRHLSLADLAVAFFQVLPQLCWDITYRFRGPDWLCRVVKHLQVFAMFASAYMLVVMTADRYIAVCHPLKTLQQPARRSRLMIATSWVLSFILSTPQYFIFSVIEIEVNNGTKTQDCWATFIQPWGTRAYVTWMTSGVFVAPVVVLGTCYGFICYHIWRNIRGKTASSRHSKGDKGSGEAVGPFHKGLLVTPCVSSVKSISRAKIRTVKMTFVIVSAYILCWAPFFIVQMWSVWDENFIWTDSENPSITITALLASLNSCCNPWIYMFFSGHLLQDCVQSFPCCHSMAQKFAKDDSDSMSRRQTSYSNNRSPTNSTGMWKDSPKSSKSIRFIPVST
T2 sequence (Q00788 whole entry): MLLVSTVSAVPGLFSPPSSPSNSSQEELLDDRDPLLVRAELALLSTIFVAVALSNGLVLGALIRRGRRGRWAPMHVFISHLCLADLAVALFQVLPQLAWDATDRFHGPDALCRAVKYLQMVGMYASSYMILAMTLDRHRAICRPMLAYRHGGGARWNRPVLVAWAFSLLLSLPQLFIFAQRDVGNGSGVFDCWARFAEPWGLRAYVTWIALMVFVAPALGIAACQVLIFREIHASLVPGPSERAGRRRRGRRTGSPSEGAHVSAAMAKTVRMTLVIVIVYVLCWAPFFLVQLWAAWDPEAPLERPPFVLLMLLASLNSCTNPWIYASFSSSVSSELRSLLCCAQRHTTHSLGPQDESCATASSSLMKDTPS

SMILES: CCOc1ccccc1C(=O)Nc1ccc(C(=O)N2Cc3cccn3Cc3ccccc32)cc1 [Example 84, N-[4-(5H-Pyrrolo[2,1-c][1,4]benzodiazepin-10(11H)-ylcarbonyl)phenyl]-2-ethoxybenzamide]
- IC50 (Rat Hepatic V1 Receptors): 45 nM
- % Inhibition (Vasopressin V1; [2]): 77%
- Average Change (Vasopressin V1; [2]): 10.5
- % Inhibition (Vasopressin V1; [3]): 64%
- Average Change (Vasopressin V1; [3]): 16.5
- % Inhibition (Vasopressin V1; [4]): 72%
- Average Change (Vasopressin V1; [4]): 13
- % Inhibition (Vasopressin V1; [5]): 58%
- Average Change (Vasopressin V1; [5]): 19.5
- % Inhibition (Vasopressin V1; [6]): 47%
- Average Change (Vasopressin V1; [6]): 24.5
- % Inhibition (Vasopressin V1; [7]): 43%
- Average Change (Vasopressin V1; [7]): 26
- % Inhibition (Vasopressin V1; [8]): 51%
- Average Change (Vasopressin V1; [8]): 22.5
- % Inhibition (Vasopressin V1; [9]): 76%
- Average Change (Vasopressin V1; [9]): 14.5
- % Inhibition (Vasopressin V1; [10]): 45%
- Average Change (Vasopressin V1; [10]): 33.5
- % Inhibition (Vasopressin V1; [11]): 57%
- Average Change (Vasopressin V1; [11]): 26
- % Inhibition (Vasopressin V1; [12]): 47%
- Average Change (Vasopressin V1; [12]): 32.5
- % Inhibition (Vasopressin V1; [13]): 48%
- Average Change (Vasopressin V1; [13]): 31.5
- % Inhibition (Vasopressin V1; [14]): 39%
- Average Change (Vasopressin V1; [14]): 37
- % Inhibition (Vasopressin V1; [15]): 30%
- Average Change (Vasopressin V1; [15]): 43
- IC50 [1]: 77 nM

SMILES: Cc1c(CC(=O)Nc2ccc(C(=O)N3Cc4cccn4Cc4ccccc43)cc2)sc2ccccc12 [Example 87]
- inhibition at 10 µM (Rat Hepatic V1 Receptors; 2 h, 10 μM, rat): 63%
- % Inhibition (Vasopressin V1; [2]): 20%
- Average Change (Vasopressin V1; [2]): 50
- % Inhibition (Vasopressin V1; [9]): 14%
- Average Change (Vasopressin V1; [9]): 57
- % Inhibition (Vasopressin V1; [16]): 77%
- Average Change (Vasopressin V1; [16]): 14.5
- % Inhibition (Vasopressin V1; [17]): 61%
- Average Change (Vasopressin V1; [17]): 24.5
- % Inhibition (Vasopressin V1; [18]): 58%
- Average Change (Vasopressin V1; [18]): 26
- % Inhibition (Vasopressin V1; [19]): 58%
- Average Change (Vasopressin V1; [19]): 26.5
- % Inhibition (Vasopressin V1; [20]): 54%
- Average Change (Vasopressin V1; [20]): 28.5
- % Inhibition (Vasopressin V1; [21]): 52%
- Average Change (Vasopressin V1; [21]): 30
- % Inhibition (Vasopressin V1; [22]): 51%
- Average Change (Vasopressin V1; [22]): 32.5
- % Inhibition (Vasopressin V1; [23]): 50%
- Average Change (Vasopressin V1; [23]): 33.5
- % Inhibition (Vasopressin V1; [24]): 47%
- Average Change (Vasopressin V1; [24]): 35.5
- % Inhibition (Vasopressin V1; [25]): 44%
- Average Change (Vasopressin V1; [25]): 37.5
- % Inhibition (Vasopressin V1; [26]): 38%
- Average Change (Vasopressin V1; [26]): 41
- % Inhibition (Vasopressin V1; [27]): 27%
- Average Change (Vasopressin V1; [27]): 48.5
- inhibition at 10 µM ([1]; 10 μM, rat): 80%

SMILES: COc1cc(Cl)ccc1C(=O)Nc1ccc(C(=O)N2Cc3cccn3Cc3ccccc32)cc1 [Example 89, N-[4-(5H-Pyrrolo[2,1-c][1,4]benzodiazepin-10(11H)ylcarbonyl)phenyl]-4-chloro-2-methoxybenzamide]
- IC50 (Rat Hepatic V1 Receptors): 23 nM
- % Inhibition (Vasopressin V1; [2]): 88%
- Average Change (Vasopressin V1; [2]): 5
- % Inhibition (Vasopressin V1; [3]): 81%
- Average Change (Vasopressin V1; [3]): 7.5
- % Inhibition (Vasopressin V1; [4]): 81%
- Average Change (Vasopressin V1; [4]): 7.5
- % Inhibition (Vasopressin V1; [5]): 63%
- Average Change (Vasopressin V1; [5]): 15
- % Inhibition (Vasopressin V1; [6]): 38%
- Average Change (Vasopressin V1; [6]): 25
- % Inhibition (Vasopressin V1; [7]): 38%
- Average Change (Vasopressin V1; [7]): 25
- % Inhibition (Vasopressin V1; [8]): 31%
- Average Change (Vasopressin V1; [8]): 27.5
- % Inhibition (Vasopressin V1; [9]): 92%
- Average Change (Vasopressin V1; [9]): 5
- % Inhibition (Vasopressin V1; [10]): 84%
- Average Change (Vasopressin V1; [10]): 10
- % Inhibition (Vasopressin V1; [11]): 80%
- Average Change (Vasopressin V1; [11]): 12.5
- % Inhibition (Vasopressin V1; [12]): 56%
- Average Change (Vasopressin V1; [12]): 27.5
- % Inhibition (Vasopressin V1; [13]): 48%
- Average Change (Vasopressin V1; [13]): 32.5
- % Inhibition (Vasopressin V1; [14]): 44%
- Average Change (Vasopressin V1; [14]): 35
- % Inhibition (Vasopressin V1; [15]): 48%
- Average Change (Vasopressin V1; [15]): 32.5
- IC50 [1]: 8 nM
